Laboratory results taken from paper PMC7044277 (Nature Communications, 2020).
“And” between values parts separate entries of the source, which are not always exact repeats. Equal values may be shown once.

Tests used:
Format in all cases: cell-based
Design in all cases: GPCRome screening signal at PTGIR / GPCRome screening signal at PTH1R / GPCRome screening signal at PTH2R / GPCRome screening signal at QRFP / GPCRome screening signal at RXFP2 / GPCRome screening signal at RXFP3 / GPCRome screening signal at RXFP4 / GPCRome screening signal at S1PR2 / GPCRome screening signal at S1PR3 / GPCRome screening signal at S1PR4 / GPCRome screening signal at S1PR5 / GPCRome screening signal at SCTR / GPCRome screening signal at SSTR2 / GPCRome screening signal at SSSTR / GPCRome screening signal at SSTR4 / GPCRome screening signal at SSTR5 / GPCRome screening signal at SUCNR1 / GPCRome screening signal at TA1 / GPCRome screening signal at TAAR2 / GPCRome screening signal at TAAR5 / GPCRome screening signal at TAAR6 / GPCRome screening signal at TAAR8 / GPCRome screening signal at TACR1 / GPCRome screening signal at TACR2 / GPCRome screening signal at TACR3 / GPCRome screening signal at TBXA2R / GPCRome screening signal at TSHR / GPCRome screening signal at UTS2R / GPCRome screening signal at VIPR2 / GPCRome screening signal at GPR68 no V2 Tail / GPCRome screening signal at GRM2 / GPCRome screening signal at GRM3: reference not given here
[1] = target: T1, 320 non-olfactory GPCRs (Homo sapiens, UniProt P16473); settings: receptor TSHR
T1 construct: expressed in transfected cells; host or cells: HTLA cells

[2] = target: 320 non-olfactory GPCRs (Homo sapiens, UniProt P25103); settings: receptor TACR1
[3] = target: T2, 320 non-olfactory GPCRs (Homo sapiens, UniProt Q969N4); settings: receptor TAAR8
T2 construct: expressed in transfected cells; host or cells: HTLA cells

[4] = target: 320 non-olfactory GPCRs (Homo sapiens, UniProt Q99500); settings: receptor S1PR3
[5] = Fig_5f, single replicate values
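Throughout, for GPCRome agonism screen response: fold over basal response of each receptor without drug.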

Sequence of 320 non-olfactory GPCRs (Homo sapiens, UniProt Q99500) (Q99500 whole entry): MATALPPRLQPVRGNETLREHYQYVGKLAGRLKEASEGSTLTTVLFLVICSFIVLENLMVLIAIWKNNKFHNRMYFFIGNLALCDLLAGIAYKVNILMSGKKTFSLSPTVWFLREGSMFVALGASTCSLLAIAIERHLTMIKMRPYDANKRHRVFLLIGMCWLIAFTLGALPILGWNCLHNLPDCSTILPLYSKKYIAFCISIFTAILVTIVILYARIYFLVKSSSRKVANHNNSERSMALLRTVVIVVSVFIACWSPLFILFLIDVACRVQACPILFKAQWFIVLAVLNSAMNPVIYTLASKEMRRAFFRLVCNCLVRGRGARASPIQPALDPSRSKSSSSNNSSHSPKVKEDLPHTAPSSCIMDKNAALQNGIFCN
T1 sequence (P16473 21-764): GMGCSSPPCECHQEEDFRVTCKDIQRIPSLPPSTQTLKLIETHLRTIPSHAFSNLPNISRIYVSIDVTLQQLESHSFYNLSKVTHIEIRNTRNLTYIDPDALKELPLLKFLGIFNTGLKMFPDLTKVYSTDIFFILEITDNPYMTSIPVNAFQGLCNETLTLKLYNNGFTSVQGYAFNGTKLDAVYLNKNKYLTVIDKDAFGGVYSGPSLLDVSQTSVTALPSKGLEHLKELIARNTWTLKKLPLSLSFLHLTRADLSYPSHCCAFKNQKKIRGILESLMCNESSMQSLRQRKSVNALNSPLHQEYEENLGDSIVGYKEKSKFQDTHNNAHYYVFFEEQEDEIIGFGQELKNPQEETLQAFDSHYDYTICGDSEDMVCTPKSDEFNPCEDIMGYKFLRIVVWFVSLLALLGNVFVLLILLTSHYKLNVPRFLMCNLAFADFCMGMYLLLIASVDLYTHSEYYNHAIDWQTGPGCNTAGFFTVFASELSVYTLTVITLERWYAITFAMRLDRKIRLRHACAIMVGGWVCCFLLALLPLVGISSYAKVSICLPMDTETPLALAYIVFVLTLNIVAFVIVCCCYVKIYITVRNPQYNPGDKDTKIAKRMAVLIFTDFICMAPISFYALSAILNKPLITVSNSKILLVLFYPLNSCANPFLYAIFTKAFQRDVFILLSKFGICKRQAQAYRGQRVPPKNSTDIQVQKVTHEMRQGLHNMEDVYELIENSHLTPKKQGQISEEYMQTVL
T2 sequence (Q969N4 whole entry): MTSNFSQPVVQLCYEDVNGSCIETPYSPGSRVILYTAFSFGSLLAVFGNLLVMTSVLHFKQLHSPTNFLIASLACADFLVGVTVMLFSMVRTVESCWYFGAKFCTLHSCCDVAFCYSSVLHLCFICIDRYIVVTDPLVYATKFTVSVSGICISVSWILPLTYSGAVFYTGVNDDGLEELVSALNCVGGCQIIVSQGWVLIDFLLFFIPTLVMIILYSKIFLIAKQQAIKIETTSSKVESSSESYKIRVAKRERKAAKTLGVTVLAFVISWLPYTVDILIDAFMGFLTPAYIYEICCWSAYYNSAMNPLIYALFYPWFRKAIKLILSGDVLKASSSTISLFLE
Sequence of 320 non-olfactory GPCRs (Homo sapiens, UniProt P25103) (P25103 whole entry): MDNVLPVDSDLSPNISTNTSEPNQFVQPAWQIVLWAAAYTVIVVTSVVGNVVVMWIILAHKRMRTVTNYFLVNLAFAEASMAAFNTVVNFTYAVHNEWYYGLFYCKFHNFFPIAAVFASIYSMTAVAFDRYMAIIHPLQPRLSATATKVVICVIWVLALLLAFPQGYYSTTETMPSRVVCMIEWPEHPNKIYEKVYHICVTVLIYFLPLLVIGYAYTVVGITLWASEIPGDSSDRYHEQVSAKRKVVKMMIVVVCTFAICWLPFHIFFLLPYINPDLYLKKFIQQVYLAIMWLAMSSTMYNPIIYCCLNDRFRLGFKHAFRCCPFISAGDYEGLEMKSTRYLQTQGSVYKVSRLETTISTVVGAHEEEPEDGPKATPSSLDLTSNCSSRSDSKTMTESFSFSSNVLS

| GPCRome screening signal at TSHR [1, 5] | GPCRome screening signal at TACR1 [2, 5] | GPCRome screening signal at TAAR8 [3, 5] | GPCRome screening signal at S1PR3 [4, 5] | SMILES | GPCRome agonism screen response ([1]; replicate values, Fig_4g) | GPCRome agonism screen response ([2]; replicate values, Fig_4g) | GPCRome agonism screen response ([3]; replicate values, Fig_4g) | GPCRome agonism screen response ([4]; replicate values, Fig_4g) |
| --- | --- | --- | --- | --- | --- | --- | --- | --- |
| 0.6627 and 1.386 and 0.8068 and 1.0471 | 1.29 and 1.225 and 0.9839 and 1.172 | 0.6115 and 0.4578 and 0.5144 and 0.5546 | 1.578 and 1.076 and 2.206 and 1.217 | CCOc1ccccc1CCC(C)NCC1(O)CCCCC1.Cl (racemic) [Fig_5f] | – | – | – | – |
| – | – | – | – | CCOc1cccc2cc(C(C)NCC3(O)CCCCC3)oc12 (centres unmarked) [O4LE6] | 0.633 and 1.167 and 0.8187 and 0.6635 | 1.178 and 0.9848 and 1.177 and 1.1855 | 0.2595 and 0.5748 and 0.5852 and 0.7484 | 2.336 and 1.6343 and 1.172 and 1.379 |
